Results published in patent US20230391817A1, “5ALPHA-HYDROXY-6BETA-[2-(1-H-IMIDAZOL-4-YL)-ETHYLAMINO]-CHOLESTAN-3BETA-OL ANALOGUES AND PHARMACEUTICAL COMPOSITIONS COMPRISING SAME FOR USE IN THE TREATMENT OF CANCER” (priority 2020, published 2023).

Target: T1, Cholesterol Epoxide Hydrolase (ChEH) (Homo sapiens, UniProt Q15125+Q9UBM7)
T1 construct: endogenous in cells; host or cells: MCF-7
Assay: Cholesterol Epoxide Hydrolase (ChEH) activity in MCF-7 cells, [14C]5,6α-EC metabolism by TLC
Format: cell-based
Details: 1 μM, 24 h, [14C]5,6α-EC 0.6 μM
Description: The compounds 5,6α-epoxycholesterol (5,6α-EC) and 5,6p-epoxycholesterol (5,6p-EC) are oxysterols involved in the anticancer pharmacology of tamoxifen, a widely used antitumor drug. Both are metabolized to cholestane-3β,5α,6β-triol (CT) by the enzyme cholesterol-5,6-epoxide hydrolase (ChEH), and CT is metabolized by the enzyme HSD11B2 (11β-hydroxysteroid dehydrogenase 2) to 6-oxocholestane-3β,5α-diol (OCDO), a tumor-promoting oncosterone.
MCF-7 cells are in a cell culture medium identical to that of Example 5 and are seeded in 6-well plates at 150 000 cells per well with three wells per treatment condition. […] Tamoxifen is used as a positive control for 3α-fluoro-5α-hydroxy-6β-[2-(1H-imidazol-4-yl)ethylamino]cholestane and 5α-hydroxy-6β-[2-(1H-imidazol-4-yl)ethylamino]cholestan-3β-ol (1 μM for all molecules).
After 24 hours of treatment, the media are collected and lipid extracts are prepared from the cell pellets by extraction with 100 μL of chloroform, 400 μL of methanol, and 300 μL of water.
The lipid extracts are analyzed by thin layer chromatography (TLC) using ethyl acetate (EtOAc) as eluent. The analysis is performed with a plate reader and then by autoradiography.

T1 sequence (Q15125 whole entry): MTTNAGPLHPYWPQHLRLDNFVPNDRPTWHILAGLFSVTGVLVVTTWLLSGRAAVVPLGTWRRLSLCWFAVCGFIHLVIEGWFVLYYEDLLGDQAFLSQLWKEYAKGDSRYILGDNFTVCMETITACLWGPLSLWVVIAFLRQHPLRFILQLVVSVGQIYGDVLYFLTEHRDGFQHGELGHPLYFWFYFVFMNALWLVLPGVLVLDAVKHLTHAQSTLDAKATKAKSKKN
T1 sequence (Q9UBM7 whole entry): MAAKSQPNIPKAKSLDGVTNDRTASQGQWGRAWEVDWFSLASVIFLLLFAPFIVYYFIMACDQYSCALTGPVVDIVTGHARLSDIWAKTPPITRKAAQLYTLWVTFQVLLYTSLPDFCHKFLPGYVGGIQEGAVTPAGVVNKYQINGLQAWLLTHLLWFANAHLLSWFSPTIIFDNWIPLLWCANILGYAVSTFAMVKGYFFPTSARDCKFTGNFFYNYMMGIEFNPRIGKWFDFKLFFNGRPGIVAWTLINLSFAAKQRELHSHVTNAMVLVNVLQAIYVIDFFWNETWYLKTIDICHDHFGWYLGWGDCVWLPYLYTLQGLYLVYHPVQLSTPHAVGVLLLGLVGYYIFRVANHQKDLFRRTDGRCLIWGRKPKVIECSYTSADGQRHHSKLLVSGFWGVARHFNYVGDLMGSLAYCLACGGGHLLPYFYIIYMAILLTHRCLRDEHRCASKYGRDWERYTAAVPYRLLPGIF

SMILES: CC/C(=C(\c1ccccc1)c1ccc(OCCN(C)C)cc1)c1ccccc1 [tamoxifen, reference compound]
- inhibition of ChEH activity: total inhibition
